Test results reported in US10428062B2, “Geminal substituted aminobenzisoxazole compounds as agonists of α7-nicotinic acetylcholine receptors” (Forum Pharmaceuticals, Inc., priority 2015, dated 2019).
Counter-ions that a name gives are not always drawn.

Target: human α7 nAChR (Homo sapiens, UniProt P36544)
Test: not given
Assay type: binding
Conditions: above described assay provided by Cerep

Sequence of human α7 nAChR (P36544 23-502): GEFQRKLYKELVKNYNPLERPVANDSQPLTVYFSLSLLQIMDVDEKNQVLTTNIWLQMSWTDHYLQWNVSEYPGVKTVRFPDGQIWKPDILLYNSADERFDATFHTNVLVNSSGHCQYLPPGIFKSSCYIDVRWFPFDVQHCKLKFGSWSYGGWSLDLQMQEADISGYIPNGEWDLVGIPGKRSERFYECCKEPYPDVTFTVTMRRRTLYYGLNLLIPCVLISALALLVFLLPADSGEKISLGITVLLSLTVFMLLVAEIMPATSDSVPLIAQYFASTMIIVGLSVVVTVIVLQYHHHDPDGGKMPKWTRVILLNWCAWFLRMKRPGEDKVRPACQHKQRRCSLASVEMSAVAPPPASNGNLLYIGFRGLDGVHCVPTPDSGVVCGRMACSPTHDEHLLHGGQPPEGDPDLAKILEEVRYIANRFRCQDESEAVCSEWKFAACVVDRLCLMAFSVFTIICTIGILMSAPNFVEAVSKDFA

Question: Which Ki does the source give for `Cc1ccc(-c2ccc(OC3CN4CCC3CC4)cn2)cc1` (centres unmarked) [AQW051] here?
Answer: 255 nM

Target: T1, human 5-HT3 serotonin receptors (Homo sapiens, UniProt P46098)
T1 sequence (P46098 24-478): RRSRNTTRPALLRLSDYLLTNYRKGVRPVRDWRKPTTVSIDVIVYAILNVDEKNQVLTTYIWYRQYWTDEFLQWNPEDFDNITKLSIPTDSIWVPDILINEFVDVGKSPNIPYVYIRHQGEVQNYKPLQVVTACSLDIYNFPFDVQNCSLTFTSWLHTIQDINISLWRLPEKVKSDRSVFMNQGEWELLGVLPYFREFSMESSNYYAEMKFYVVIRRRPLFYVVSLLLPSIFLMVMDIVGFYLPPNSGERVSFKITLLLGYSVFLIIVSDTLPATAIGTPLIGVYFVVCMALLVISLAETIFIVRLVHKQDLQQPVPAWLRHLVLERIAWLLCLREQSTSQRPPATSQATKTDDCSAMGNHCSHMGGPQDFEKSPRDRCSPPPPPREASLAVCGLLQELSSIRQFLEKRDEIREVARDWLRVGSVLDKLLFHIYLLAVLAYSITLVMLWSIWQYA
Test: [3H]BRL 43694 competition binding assay (Cerep)
Conditions: not given

Question: With `Clc1ccc2c(NC3C4CCN(CC4)C34CC4)noc2c1` (racemic) [rac-16, 6-chloro-N-(1′-azaspiro[cyclopropane-1,2′-bicyclo[2.2.2]octan]-3′-yl)benzo[d]isoxazol-3-amine hydrochloride] as the compound, how does the Ki read?
Answer: 1800 nM

Question: For `Clc1ccc2c(N[C@@H]3C4CCN(CC4)C34CC4)noc2c1Cl` [(R)-19, (R)-6,7-dichloro-N-(1′-azaspiro[cyclopropane-1,2′-bicyclo[2.2.2]octan]-3′-yl)benzo[d]isoxazol-3-amine hydrochloride], which Ki is on record?
Answer: 100 nM

Question: Which Ki does the source give for `Cc1ccc2c(N[C@@H]3C4CCN(CC4)C34CC4)noc2c1Cl` [Compound (R)-28, (R)-7-chloro-6-methyl-N-(1′-azaspiro[cyclopropane-1,2′-bicyclo[2.2.2]octan]-3′-yl)benzo[d]isoxazol-3-amine hydrochloride] here?
Answer: 66 nM

Same assay, conditions: CHO cell membranes expressing human 5-HT3 receptors, [3H]BRL 43694, 120 min at room temperature; read-out: h-5HT3 Ki

Question: For `CC1(C)[C@H](Nc2noc3cc(Cl)c(F)cc23)C2CCN1CC2` [Compound (R)-11, (R)-6-chloro-N-(2,2-dimethylquinuclidin-3-yl)-5-fluorobenzo[d]isoxazol-3-amine hydrochloride], which Ki is on record?
Answer: > 10000 nM

Question: With `Fc1cc2c(N[C@@H]3C4CCN(CC4)C34CC4)noc2cc1Cl` [Compound (R)-26, (R)-6-chloro-5-fluoro-N-(1′-azaspiro[cyclopropane-1,2′-bicyclo[2.2.2]octan]-3′-yl)benzo[d]isoxazol-3-amine hydrochloride] as the compound, how does the Ki read?
Answer: 2800 nM

Question: For `COc1ccc2c(N[C@@H]3C4CCN(CC4)C34CC4)noc2c1` [Compound (R)-18, (R)-6-methoxy-N-(1′-azaspiro[cyclopropane-1,2′-bicyclo[2.2.2]octan]-3′-yl)benzo[d]isoxazol-3-amine hydrochloride], which Ki is on record?
Answer: > 10000 nM

Question: Which Ki does the source give for `Cc1cc2onc(N[C@@H]3C4CCN(CC4)C3(C)C)c2cc1F` [Compound (R)-9, (R)—N-(2,2-dimethylquinuclidin-3-yl)-5-fluoro-6-methylbenzo[d]isoxazol-3-amine hydrochloride] here?
Answer: > 10000 nM

Question: Which Ki does the source give for `Cc1cc2onc(N[C@@H]3C4CCN(CC4)C34CC4)c2cc1F` [Compound (R)-24, (R)-5-fluoro-6-methyl-N-(1′-azaspiro[cyclopropane-1,2′-bicyclo[2.2.2]octan]-3′-yl) benzo[d]isoxazol-3-amine hydrochloride] here?
Answer: 3100 nM

Question: For `COc1c(Cl)ccc2c(N[C@@H]3C4CCN(CC4)C34CC4)noc12` [Compound (R)-20, (R)-6-chloro-7-methoxy-N-(1′-azaspiro[cyclopropane-1,2′-bicyclo[2.2.2]octan]-3′-yl)benzo[d]isoxazol-3-amine hydrochloride], which Ki is on record?
Answer: 200 nM

Question: For `CC1(C)[C@H](Nc2noc3cc(Cl)ccc23)C2CCN1CC2` [Compound (R)-1, (R)-6-chloro-N-(2,2-dimethylquinuclidin-3-yl)benzo[d]isoxazol-3-amine], which Ki is on record?
Answer: 2600 nM

Question: For `Cc1ccc2c(N[C@@H]3C4CCN(CC4)C34CC4)noc2c1` [Compound (R)-21, (R)-6-methyl-N-(1′-azaspiro[cyclopropane-1,2′-bicyclo[2.2.2]octan]-3′-yl) benzo[d]isoxazol-3-amine hydrochloride], which Ki is on record?
Answer: 1600 nM

Question: With `CC1(C)[C@H](Nc2noc3c(C(F)(F)F)c(Cl)ccc23)C2CCN1CC2` [Compound (R)-14, (R)-6-chloro-N-(2,2-dimethylquinuclidin-3-yl)-7-(trifluoromethyl)benzo[d]isoxazol-3-amine hydrochloride] as the compound, how does the Ki read?
Answer: > 10000 nM

Question: For `CC1(C)[C@H](Nc2noc3c(F)c(Cl)ccc23)C2CCN1CC2` [Compound (R)-2, (R)-6-chloro-N-(2,2-dimethylquinuclidin-3-yl)-7-fluorobenzo[d]isoxazol-3-amine hydrochloride], which Ki is on record?
Answer: 3150 nM

Question: With `Fc1ccc2c(N[C@@H]3C4CCN(CC4)C34CC4)noc2c1Cl` [Compound (R)-23, (R)-7-chloro-6-fluoro-N-(1′-azaspiro[cyclopropane-1,2′-bicyclo[2.2.2]octan]-3′-yl)benzo[d]isoxazol-3-amine hydrochloride] as the compound, how does the Ki read?
Answer: 110 nM

Question: With `FC(F)(F)c1c(Cl)ccc2c(N[C@@H]3C4CCN(CC4)C34CC4)noc12` [Compound (R)-29, (R)-6-chloro-N-(1′-azaspiro[cyclopropane-1,2′-bicyclo[2.2.2]octan]-3′-yl)-7-(trifluoromethyl)benzo[d]isoxazol-3-amine hydrochloride] as the compound, how does the Ki read?
Answer: 4300 nM

Question: Which Ki does the source give for `CC1(C)[C@H](Nc2noc3c(Cl)c(Cl)ccc23)C2CCN1CC2` [Compound (R)-4, (R)-6,7-dichloro-N-(2,2-dimethylquinuclidin-3-yl)benzo[d]isoxazol-3-amine hydrochloride] here?
Answer: 130 nM

Question: With `Cc1ccc2c(N[C@@H]3C4CCN(CC4)C34CC4)noc2c1F` [Compound (R)-22, (R)-7-fluoro-6-methyl-N-(1′-azaspiro[cyclopropane-1,2′-bicyclo[2.2.2]octan]-3′-yl)benzo[d]isoxazol-3-amine hydrochloride] as the compound, how does the Ki read?
Answer: 540 nM

Question: With `CC1(C)[C@H](Nc2noc3c(Cl)c(F)ccc23)C2CCN1CC2` [Compound (R)-8, (R)-7-chloro-N-(2,2-dimethylquinuclidin-3-yl)-6-fluorobenzo[d]isoxazol-3-amine hydrochloride] as the compound, how does the Ki read?
Answer: 170 nM

Question: Which Ki does the source give for `COc1ccc2c(N[C@@H]3C4CCN(CC4)C3(C)C)noc2c1` [Compound (R)-3, (R)—N-(2,2-dimethylquinuclidin-3-yl)-6-methoxybenzo[d]isoxazol-3-amine hydrochloride] here?
Answer: > 10000 nM

Question: Which Ki does the source give for `Clc1ccc2c(N[C@@H]3C4CCN(CC4)C34CC4)noc2c1` [Compound (R)-16, (R)-6-chloro-N-(1′-azaspiro[cyclopropane-1,2′-bicyclo[2.2.2]octan]-3′-yl)benzo[d]isoxazol-3-amine] here?
Answer: 1630 nM

Question: Which Ki does the source give for `Cc1ccc2c(N[C@@H]3C4CCN(CC4)C3(C)C)noc2c1` [Compound (R)-6, (R)—N-(2,2-dimethylquinuclidin-3-yl)-6-methylbenzo[d]isoxazol-3-amine hydrochloride] here?
Answer: 3500 nM

Question: For `Fc1c(Cl)ccc2c(N[C@@H]3C4CCN(CC4)C34CC4)noc12` [Compound (R)-17, (R)-6-chloro-7-fluoro-N-(1′-azaspiro[cyclopropane-1,2′-bicyclo[2.2.2]octan]-3′-yl)benzo[d]isoxazol-3-amine hydrochloride], which Ki is on record?
Answer: 920 nM

Question: With `COc1c(Cl)ccc2c(N[C@@H]3C4CCN(CC4)C3(C)C)noc12` [Compound (R)-5, (R)-6-chloro-N-(2,2-dimethylquinuclidin-3-yl)-7-methoxybenzo[d]isoxazol-3-amine hydrochloride] as the compound, how does the Ki read?
Answer: 450 nM

Question: Which Ki does the source give for `Cc1ccc2c(N[C@@H]3C4CCN(CC4)C3(C)C)noc2c1Cl` [Compound (R)-13, (R)-7-chloro-N-(2,2-dimethylquinuclidin-3-yl)-6-methylbenzo[d]isoxazol-3-amine hydrochloride] here?
Answer: 150 nM

Question: Which Ki does the source give for `Cc1ccc2c(N[C@@H]3C4CCN(CC4)C3(C)C)noc2c1F` [Compound (R)-7, (R)—N-(2,2-dimethylquinuclidin-3-yl)-7-fluoro-6-methylbenzo[d]isoxazol-3-amine hydrochloride] here?
Answer: 2100 nM

Question: With `CC1(C)C(Nc2noc3cc(Cl)ccc23)C2CCN1CC2` (racemic) [rac-1, 6-chloro-N-(2,2-dimethylquinuclidin-3-yl)benzo[d]isoxazol-3-amine hydrochloride] as the compound, how does the Ki read?
Answer: 2700 nM

Question: With `CCOc1c(Cl)ccc2c(N[C@@H]3C4CCN(CC4)C3(C)C)noc12` [Compound (R)-12, (R)-6-chloro-N-(2,2-dimethylquinuclidin-3-yl)-7-ethoxybenzo[d]isoxazol-3-amine hydrochloride] as the compound, how does the Ki read?
Answer: > 10000 nM

Question: Which Ki does the source give for `Cc1c(Cl)ccc2c(N[C@@H]3C4CCN(CC4)C34CC4)noc12` [Compound (R)-25, (R)-6-chloro-7-methyl-N-(1′-azaspiro[cyclopropane-1,2′-bicyclo[2.2.2]octan]-3′-yl)benzo[d]isoxazol-3-amine hydrochloride] here?
Answer: 170 nM

Question: Which Ki does the source give for `CCOc1c(Cl)ccc2c(N[C@@H]3C4CCN(CC4)C34CC4)noc12` [Compound (R)-27, (R)-6-chloro-7-ethoxy-N-(1′-azaspiro[cyclopropane-1,2′-bicyclo[2.2.2]octan]-3′-yl)benzo[d]isoxazol-3-amine hydrochloride] here?
Answer: 5600 nM

Question: Which Ki does the source give for `Cc1c(Cl)ccc2c(N[C@@H]3C4CCN(CC4)C3(C)C)noc12` [Compound (R)-10, (R)-6-chloro-N-(2,2-dimethylquinuclidin-3-yl)-7-methylbenzo[d]isoxazol-3-amine hydrochloride] here?
Answer: 380 nM

Target: recombinantly expressed human α7-nAChR (Homo sapiens, UniProt P36544)
Sequence (P36544 23-502): as the sequence (P36544 23-502) above
Test: not given
Conditions: [125I] α-BTX radioligand, Feuerbach et al., Br. J. Pharmacol., 2014, read-out: Ki (lit); cited from earlier work

Question: For `Cc1ccc(-c2ccc(OC3CN4CCC3CC4)cn2)cc1` (centres unmarked) [AQW051], which Ki is on record?
Answer: 28 nM
